“Also recorded” adds a separate entry of the source.
Biological target: concanavalin A (ConA) (Canavalia ensiformis, UniProt P02866)
Assay: Surface plasmon resonance (Biacore T100) binding of glycosylated OCN to immobilised lectin
Details: injected at the highest mass concentration of [2l] shown (2.0 mg 1-1)
Protocol: ConA was covalently attached to the Au-coated sensor chip's dextran layer via conventional amide coupling, and binding between ConA and the injected analyte was measured as a change in the refractive index (RI) and expressed in response units (RU). […] (See, e.g., Kamiya, N., et al., J. Am. Chem. Soc. 129, 3816-3817 (2007), the disclosure of which is incorporated herein by reference.)

O=C[C@H](O)[C@@H](O)[C@H](O)[C@H](O)CO [D-glucose]
binding response to ConA (controls): minimal to no binding; also recorded: minimal binding

Reference: patent publication US11479470B2, “Three-dimensional boron-rich clusters” (The Regents of the University of California, priority 2016, dated 2022)
